Test results taken from patent publication US9815796B2 (Merck Sharp & Dohme Corp., priority 2013, dated 2017).
Where two headings read alike, the source gives them in different places.

What was measured:
Rhesus PDE2A3 = Rhesus PDE2A3 (Macaca mulatta, UniProt B3VTJ2); test: PDE2 fluorescence polarization (IMAP FP) inhibition assay, rhesus enzyme; assay type: biochemical, rhesus macaque
Method in brief: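 IMAP FP (mP from parallel and perpendicular fluorescence against substrate-only control) was read ≥1 h after adding binding reagent. The preceding 60 min room-temperature reaction contained FAM-cAMP (50 nM) and cGMP (1 uM) in pH 7.2 Tris buffer with MgCl2 and DTT. Enzyme was supernatant of sonicated AD293 cells expressing rhesus PDE2A3; compounds were 3-fold titrated, DMSO 1% final.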

human PDE2A1 = human PDE2A1 (Homo sapiens (Human), UniProt O00408); test: IMAP FP PDE selectivity panel, human PDE2A1; assay type: biochemical
Sequence of human PDE2A1 (O00408 other isoform, or with tags, fused parts or gaps): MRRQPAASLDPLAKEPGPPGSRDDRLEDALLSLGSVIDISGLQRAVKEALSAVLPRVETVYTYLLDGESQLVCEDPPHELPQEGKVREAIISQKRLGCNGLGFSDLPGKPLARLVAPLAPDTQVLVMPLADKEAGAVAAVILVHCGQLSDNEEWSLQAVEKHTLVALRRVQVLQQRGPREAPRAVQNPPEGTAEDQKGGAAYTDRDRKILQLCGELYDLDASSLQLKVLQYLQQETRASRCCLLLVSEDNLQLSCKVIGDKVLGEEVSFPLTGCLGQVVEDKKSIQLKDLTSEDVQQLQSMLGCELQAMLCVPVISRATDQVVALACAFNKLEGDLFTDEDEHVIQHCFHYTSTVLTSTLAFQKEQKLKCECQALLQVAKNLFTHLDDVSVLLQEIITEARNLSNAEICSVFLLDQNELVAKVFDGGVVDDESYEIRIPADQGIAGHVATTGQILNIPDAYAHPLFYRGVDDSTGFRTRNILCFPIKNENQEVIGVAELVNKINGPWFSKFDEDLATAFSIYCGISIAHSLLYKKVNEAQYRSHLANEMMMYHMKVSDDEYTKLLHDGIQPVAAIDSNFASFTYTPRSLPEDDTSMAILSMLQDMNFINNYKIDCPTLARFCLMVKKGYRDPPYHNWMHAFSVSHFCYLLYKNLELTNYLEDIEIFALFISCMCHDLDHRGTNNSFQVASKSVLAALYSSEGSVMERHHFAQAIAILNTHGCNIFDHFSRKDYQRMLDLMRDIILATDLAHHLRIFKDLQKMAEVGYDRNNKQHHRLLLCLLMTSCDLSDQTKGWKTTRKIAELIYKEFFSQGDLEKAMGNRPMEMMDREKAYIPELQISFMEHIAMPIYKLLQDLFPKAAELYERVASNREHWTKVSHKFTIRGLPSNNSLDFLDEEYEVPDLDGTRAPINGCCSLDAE
Method in brief: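 IMAP FP format: substrate 50 nM FAM-cAMP plus 1000 nM cGMP, enzyme (insect-cell GST-tagged human PDE2A1) at ~20% conversion, 60 min reaction at room temperature. Apparent inhibition constants calculated from parallel/perpendicular fluorescence with KM 10,000 nM.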

[1] = Rhesus PDE2, Lab A, read-out: Rhesus PDE2 Ki (nM) - Lab A
[2] = Human PDE2, Lab A, read-out: Human PDE2 Ki (nM) - Lab A
[3] = Rhesus PDE2, Lab B, read-out: Rhesus PDE2 Ki (nM) - Lab B
[4] = Human PDE2, Lab B, read-out: Human PDE2 Ki (nM) - Lab B

Sequence of Rhesus PDE2A3 (B3VTJ2 1-941): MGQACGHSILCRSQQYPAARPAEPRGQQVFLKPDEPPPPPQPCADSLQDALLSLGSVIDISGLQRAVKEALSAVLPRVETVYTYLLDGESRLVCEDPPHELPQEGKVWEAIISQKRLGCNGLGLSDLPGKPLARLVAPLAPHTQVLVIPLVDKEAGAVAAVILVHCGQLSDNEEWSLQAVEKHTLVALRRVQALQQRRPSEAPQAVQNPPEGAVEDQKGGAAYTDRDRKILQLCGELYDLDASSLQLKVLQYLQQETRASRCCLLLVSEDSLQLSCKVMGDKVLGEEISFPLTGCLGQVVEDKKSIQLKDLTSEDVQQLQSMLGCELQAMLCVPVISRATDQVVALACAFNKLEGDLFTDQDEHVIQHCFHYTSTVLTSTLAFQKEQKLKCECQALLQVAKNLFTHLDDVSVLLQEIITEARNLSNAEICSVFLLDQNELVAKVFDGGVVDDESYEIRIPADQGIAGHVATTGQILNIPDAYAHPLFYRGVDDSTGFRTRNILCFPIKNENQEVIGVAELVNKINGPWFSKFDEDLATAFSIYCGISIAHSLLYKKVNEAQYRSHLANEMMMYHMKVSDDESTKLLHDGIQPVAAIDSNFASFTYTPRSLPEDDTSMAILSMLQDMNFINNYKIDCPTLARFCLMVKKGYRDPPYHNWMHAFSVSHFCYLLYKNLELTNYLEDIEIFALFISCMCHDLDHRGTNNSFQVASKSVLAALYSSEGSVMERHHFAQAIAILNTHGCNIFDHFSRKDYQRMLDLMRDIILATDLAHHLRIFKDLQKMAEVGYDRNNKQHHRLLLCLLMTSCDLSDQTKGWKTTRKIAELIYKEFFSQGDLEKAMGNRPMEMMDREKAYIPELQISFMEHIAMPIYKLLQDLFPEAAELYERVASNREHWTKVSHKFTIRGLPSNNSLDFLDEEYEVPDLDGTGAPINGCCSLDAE

SMILES: Cc1nc(C(=O)NC(C)c2ccc(C(C)(C)C)cc2)cc(=O)[nH]1 (single isomer, unassigned) [Example 309, (R)- or (S)-N-[1-(4-tert-butylphenyl)ethyl]-2-methyl-6-oxo-1,6-dihydropyrimidine-4-carboxamide]
- Ki (Rhesus PDE2A3; [1]): 63 nM
- Ki (human PDE2A1; [2]): 43 nM

SMILES: CC[C@@H](NC(=O)c1cc(=O)[nH]c(C2CC2)n1)c1ccc(S(F)(F)(F)(F)F)cc1 [Example 242, 2-cyclopropyl-6-oxo-N-{(1R)-1-[4-(pentafluoro-λ^6-sulfanyl)phenyl]propyl}-1,6-dihydropyrimidine-4-carboxamide]
- Ki (Rhesus PDE2A3; [1]): 5 nM
- Ki (Rhesus PDE2A3; [3]): 10 nM
- Ki (human PDE2A1; [4]): 9.2 nM

SMILES: Cc1nc(C(=O)NC2(c3ccc(C(F)(F)F)cc3)CCC2)cc(=O)[nH]1 [Example 2, 2-methyl-6-oxo-N-{1-[4-(trifluoromethyl)phenyl]cyclobutyl}-1,6-dihydropyrimidine-4-carboxamide]
- Ki (Rhesus PDE2A3; [1]): 38 nM
- Ki (human PDE2A1; [2]): 24 nM

SMILES: Cc1nc(C(=O)N[C@@H](c2ccc(S(F)(F)(F)(F)F)cc2)C(C)(C)C)cc(=O)[nH]1 [Example 618, N-{(1R)-2,2-dimethyl-1-[4-(pentafluoro-λ^6-sulfanyl)phenyl]propyl}-2-methyl-6-oxo-1,6-dihydropyrimidine-4-carboxamide]
- Ki (Rhesus PDE2A3; [3]): 2 nM
- Ki (human PDE2A1; [4]): 2 nM

SMILES: CC(C)(NC(=O)c1cc(=O)[nH]c(-c2ccccc2)n1)c1ccc(OC(F)(F)F)cc1 [Example 281, N-{1-methyl-1-[4-(trifluoromethoxy)phenyl]ethyl}-6-oxo-2-phenyl-1,6-dihydropyrimidine-4-carboxamide]
- Ki (Rhesus PDE2A3; [1]): 133 nM
- Ki (human PDE2A1; [2]): 82 nM

SMILES: COc1ccc(C(C)(C)c2nc(C(=O)N[C@@H](c3ccc(C(F)(F)F)c(F)c3)C(C)(C)C)cc(=O)[nH]2)cc1 [Example 489, N-{(1R)-1-[3-fluoro-4-(trifluoromethyl)phenyl]-2,2-dimethylpropyl}-2-[1-(4-methoxyphenyl)-1-methylethyl]-6-oxo-1,6-dihydropyrimidine-4-carboxamide]
- Ki (Rhesus PDE2A3; [3]): 69 nM
- Ki (human PDE2A1; [4]): 61 nM

SMILES: COc1ccc(C(C)(C)c2nc(C(=O)N[C@@H](c3ccc(C(F)(F)F)cc3)C3CC3)cc(=O)[nH]2)cc1 [Example 502, N-{(R)-cyclopropyl[4-(trifluoromethyl)phenyl]methyl}-2-[1-(4-methoxyphenyl)-1-methylethyl]-6-oxo-1,6-dihydropyrimidine-4-carboxamide]
- Ki (Rhesus PDE2A3; [3]): 115 nM
- Ki (human PDE2A1; [4]): 75 nM

SMILES: C[C@@H](NC(=O)c1cc(=O)[nH]c(-c2ncccn2)n1)c1ccc(C(F)(F)F)c(F)c1 [Example 98, N-{(1R)-1-[3-fluoro-4-(trifluoromethyl)phenyl]ethyl}-6-oxo-1,6-dihydro-2,2′-bipyrimidine-4-carboxamide]
- Ki (Rhesus PDE2A3; [1]): 8.8 nM
- Ki (Rhesus PDE2A3; [3]): 12 nM
- Ki (human PDE2A1; [4]): 15 nM

SMILES: O=C(NC1(c2ccc(C(F)(F)F)cc2)CCC1)c1cc(=O)[nH]c(-c2ncccn2)n1 [Example 286, 6-oxo-N-{1-[4-(trifluoromethyl)phenyl]cyclobutyl}-1,6-dihydro-2,2′-bipyrimidine-4-carboxamide]
- Ki (Rhesus PDE2A3; [1]): 83 nM
- Ki (human PDE2A1; [2]): 60 nM

SMILES: CC(C)(NC(=O)c1cc(=O)[nH]c(C2CC2)n1)c1ccc(C(F)(F)F)c(F)c1 [Example 200, 2-cyclopropyl-N-{1-[3-fluoro-4-(trifluoromethyl)phenyl]-1-methylethyl}-6-oxo-1,6-dihydropyrimidine-4-carboxamide]
- Ki (Rhesus PDE2A3; [1]): 16 nM
- Ki (human PDE2A1; [2]): 9.2 nM

SMILES: CC(C)(C)[C@@H](NC(=O)c1cc(=O)[nH]c(-c2ccccc2)n1)c1ccc(C(F)(F)F)cc1 [Example 337, N-{(1R)-2,2-dimethyl-1-[4-(trifluoromethyl)phenyl]propyl}-6-oxo-2-phenyl-1,6-dihydropyrimidine-4-carboxamide]
- Ki (Rhesus PDE2A3; [1]): 0.4 nM
- Ki (Rhesus PDE2A3; [3]): 1.2 nM
- Ki (human PDE2A1; [4]): 1.1 nM

SMILES: Cc1nc(C(=O)N[C@@H](c2ccc(S(F)(F)(F)(F)F)cc2)C2CC2)cc(=O)[nH]1 [Example 405, N-{(R)-cyclopropyl[4-(pentafluoro-λ^6-sulfanyl)phenyl]methyl}-2-methyl-6-oxo-1,6-dihydropyrimidine-4-carboxamide]
- Ki (Rhesus PDE2A3; [3]): 17 nM
- Ki (human PDE2A1; [4]): 15 nM

SMILES: C[C@@H](O)[C@@H](NC(=O)c1cc(=O)[nH]c(-c2ccccc2)n1)c1ccc(C(F)(F)F)cc1 [Example 392, N-{(1S,2R)-2-hydroxy-1-[4-(trifluoromethyl)phenyl]propyl}-6-oxo-2-phenyl-1,6-dihydropyrimidine-4-carboxamide]
- Ki (Rhesus PDE2A3; [3]): 5.5 nM
- Ki (human PDE2A1; [4]): 3.3 nM

SMILES: O=C(NC1(c2ccc(SC(F)(F)F)cc2)CC1)c1cc(=O)[nH]c(-c2ccccc2)n1 [Example 159, 6-oxo-2-phenyl-N-(1-{4-[(trifluoromethyl)sulfanyl]phenyl}cyclopropyl)-1,6-dihydropyrimidine-4-carboxamide]
- Ki (Rhesus PDE2A3; [1]): 7.6 nM
- Ki (human PDE2A1; [2]): 4.9 nM

SMILES: CC(C)[C@@H](NC(=O)c1cc(=O)[nH]c(-c2ncccn2)n1)c1ccc(SC(F)(F)F)c(F)c1 [Example 245, N-[(1R)-1-{3-fluoro-4-[(trifluoromethyl)sulfanyl]phenyl}-2-methylpropyl]-6-oxo-1,6-dihydro-2,2′-bipyrimidine-4-carboxamide]
- Ki (Rhesus PDE2A3; [1]): 1.4 nM
- Ki (Rhesus PDE2A3; [3]): 1.3 nM
- Ki (human PDE2A1; [4]): 1.3 nM

SMILES: CC[C@@H](NC(=O)c1cc(=O)[nH]c(-c2ccccc2)n1)c1ccc(OC(F)(F)F)cc1 [Example 179, 6-oxo-2-phenyl-N-{(1R)-1-[4-(trifluoromethoxy)phenyl]propyl}-1,6-dihydropyrimidine-4-carboxamide]
- Ki (Rhesus PDE2A3; [1]): 4 nM
- Ki (human PDE2A1; [2]): 2.2 nM

SMILES: COc1ccc(Cc2nc(C(=O)N[C@@H](c3ccc(SC(F)(F)F)cc3)C(C)C)cc(=O)[nH]2)cc1F [Example 511, 2-(3-fluoro-4-methoxybenzyl)-N-[(1R)-2-methyl-1-{4-[(trifluoromethyl)sulfanyl]phenyl}propyl]-6-oxo-1,6-dihydropyrimidine-4-carboxamide]
- Ki (Rhesus PDE2A3; [3]): 1.2 nM
- Ki (human PDE2A1; [4]): 1.4 nM

SMILES: COc1ccc([C@@H](C)NC(=O)c2cc(=O)[nH]c(-c3ncccn3)n2)cc1 [Example 86, N-[(1R)-1-(4-methoxyphenyl)ethyl]-6-oxo-1,6-dihydro-2,2′-bipyrimidine-4-carboxamide]
- Ki (Rhesus PDE2A3; [1]): 237 nM
- Ki (human PDE2A1; [2]): 199 nM

SMILES: O=C(N[C@@H](c1ccc(C(F)(F)F)c(F)c1)C1CC1)c1cc(=O)[nH]c(C2CC2)n1 [Example 210, 2-cyclopropyl-N-{(R)-cyclopropyl[3-fluoro-4-(trifluoromethyl)phenyl]methyl}-6-oxo-1,6-dihydropyrimidine-4-carboxamide]
- Ki (Rhesus PDE2A3; [1]): 6 nM
- Ki (human PDE2A1; [2]): 3 nM

SMILES: COc1ccc(Cc2nc(C(=O)N[C@@H](c3ccc(SC(F)(F)F)c(F)c3)C(C)C)cc(=O)[nH]2)cc1 [Example 470, N-[(1R)-1-{3-fluoro-4-[(trifluoromethyl)sulfanyl]phenyl}-2-methylpropyl]-2-(4-methoxybenzyl)-6-oxo-1,6-dihydropyrimidine-4-carboxamide]
- Ki (Rhesus PDE2A3; [3]): 1.2 nM
- Ki (human PDE2A1; [4]): 1.3 nM

SMILES: C[C@@H](NC(=O)c1cc(=O)[nH]c(-c2ccccc2)n1)c1ccc(S(F)(F)(F)(F)F)cc1 [Example 401, 6-oxo-N-{(1R)-1-[4-(pentafluoro-λ^6-sulfanyl)phenyl]ethyl}-2-phenyl-1,6-dihydropyrimidine-4-carboxamide]
- Ki (Rhesus PDE2A3; [3]): 5.2 nM
- Ki (human PDE2A1; [4]): 5.8 nM

SMILES: Cc1nc(C(=O)N[C@H](C)c2ccc(OC(F)(F)F)cc2)cc(=O)[nH]1 [Example 9, 2-methyl-6-oxo-N-{(1R)-1-[4-(trifluoromethoxy)phenyl]ethyl}-1,6-dihydropyrimidine-4-carboxamide]
- Ki (Rhesus PDE2A3; [1]): 21 nM
- Ki (human PDE2A1; [2]): 16 nM

SMILES: COc1ccc(C(C)(C)c2nc(C(=O)N[C@@H](c3ccc(OC(F)(F)F)c(F)c3)C(C)(C)C)cc(=O)[nH]2)cc1 [Example 487, N-{(1R)-1-[3-fluoro-4-(trifluoromethoxy)phenyl]-2,2-dimethylpropyl}-2-[1-(4-methoxyphenyl)-1-methylethyl]-6-oxo-1,6-dihydropyrimidine-4-carboxamide]
- Ki (Rhesus PDE2A3; [3]): 61 nM
- Ki (human PDE2A1; [4]): 63 nM

SMILES: CC(C)(NC(=O)c1cc(=O)[nH]c(C2CC2)n1)c1ccc(OC(F)(F)F)cc1 [Example 295, 2-cyclopropyl-N-{1-methyl-1-[4-(trifluoromethoxy)phenyl]ethyl}-6-oxo-1,6-dihydropyrimidine-4-carboxamide]
- Ki (Rhesus PDE2A3; [1]): 127 nM
- Ki (human PDE2A1; [2]): 77 nM

SMILES: CC(C)(C)[C@@H](NC(=O)c1cc(=O)[nH]c(C2CC2)n1)c1ccc(OC(F)(F)F)cc1 [Example 463, 2-cyclopropyl-N-{(1R)-2,2-dimethyl-1-[4-(trifluoromethoxy)phenyl]propyl}-6-oxo-1,6-dihydropyrimidine-4-carboxamide]
- Ki (Rhesus PDE2A3; [3]): 1.2 nM
- Ki (human PDE2A1; [4]): 0.84 nM

SMILES: Cc1nc(C(=O)N[C@H](C)c2ccc(C(F)(F)F)cc2F)cc(=O)[nH]1 [Example 19, N-{(1R)-1-[2-fluoro-4-(trifluoromethyl)phenyl]ethyl}-2-methyl-6-oxo-1,6-dihydropyrimidine-4-carboxamide]
- Ki (Rhesus PDE2A3; [1]): 96 nM
- Ki (human PDE2A1; [2]): 81 nM

SMILES: COc1ccc(Cc2nc(C(=O)N[C@@H](c3ccc(SC(F)(F)F)c(F)c3)C3CC3)cc(=O)[nH]2)cc1F [Example 520, N-[(R)-cyclopropyl{3-fluoro-4-[(trifluoromethyl)sulfanyl]phenyl}methyl]-2-(3-fluoro-4-methoxybenzyl)-6-oxo-1,6-dihydropyrimidine-4-carboxamide]
- Ki (Rhesus PDE2A3; [3]): 3.8 nM
- Ki (human PDE2A1; [4]): 3.6 nM

SMILES: C[C@@H](NC(=O)c1cc(=O)[nH]c(-c2ccccc2)n1)c1ccc(CC(F)(F)F)cc1 [Example 183, 6-oxo-2-phenyl-N-{(1R)-1-[4-(2,2,2-trifluoromethyl)phenyl]ethyl}-1,6-dihydropyrimidine-4-carboxamide]
- Ki (Rhesus PDE2A3; [1]): 6.4 nM
- Ki (human PDE2A1; [2]): 4.1 nM
